Test results taken from US9486440B2, “Uses of indole-ketones or indolidones as neuro-protective drugs” (UNIVERSITY OF MACAU, priority 2011, dated 2016).
Like-named read-outs stand apart in the source and are kept apart here.

Experiments:
[1] = target: T1, recombinant human inducible NOS (iNOS) (Homo sapiens, UniProt P35228); assay: In vitro NOS activity assay, iNOS; format: biochemical; conditions: up to 1 mM
T1 construct: purchased Alexis Biochemicals (Lausen, Switzerland)
Procedure: (§1) In the in vitro NOS activity assay (Li et al., 2007), purified recombinant human nNOS, endothelial NOS (eNOS), and inducible NOS (iNOS) were bought from Alexis Biochemicals (Lausen, Switzerland). NOS activity was determined by monitoring the conversion of L-[3H]arginine to [3H]citrulline following the instructions provided in the kit (Calbiochem, USA). The reaction mixture contained a final volume of 40 μl with 25 mM Tris-Cl at pH 7.4, 3 μM tetrahydrobiopterin, 1 μM FAD, 1 μM FMN, 1 mM NADPH, 0.6 mM CaCl2, 0.1 μM calmodulin, 2.5 μg of pure NOS enzyme, 5 μl L-[3H]arginine (Perkin Elmer, Waltham, Mass., USA), and different concentrations of the tested reagents. The reaction mixture was incubated at 22° C. for 45 min. The reaction was quenched by adding 400 μl of stopping buffer (50 mM HEPES, pH 5.5, and 5 mM EDTA) for nNOS and eNOS reactions or by heating reactive tubes for iNOS. Unreacted L-[3H]arginine was then trapped by 100 μl of equilibrated resin provided in a spin cup followed by centrifugation for 30 s at 13,200 rpm. The filtrate was quantified by liquid scintillation counting.

[2] = test system: VEGFR-2; conditions: cited from earlier work
[3] = test system: PDGFR; conditions: cited from earlier work
[4] = target: T2, recombinant human endothelial NOS (eNOS) (Homo sapiens, UniProt P29474); assay: In vitro NOS activity assay, eNOS; format: biochemical; conditions: PTK787/ZK222584 up to 1 mM
T2 construct: purchased Alexis Biochemicals (Lausen, Switzerland)
Procedure: as §1

[5] = test system: iNOS protein expression; assay: Western blot of iNOS protein in CGNs after MPP+; format: cell-based, rat; conditions: 20 μM, 35 μM MPP+
Procedure: (§2) Briefly, neurons were harvested in a cell lysis buffer. Protein was separated on SDS-polyacrylamide gel and transferred onto polyvinyldifluoride membranes. After membrane blocking, proteins were detected using primary antibodies. After incubation at 4° C. overnight, signals were obtained after binding to chemiluminescent secondary antibodies. Blots were developed using an ECL plus kit (Amersham Bioscience, Aylesbury, UK) and exposed to Kodak autoradiographic films. All data were from three independent experiments and were expressed as the ratio to optical density (OD) values of the corresponding controls for statistical analyses.

[6] = test system: ERK and Akt pathways; assay: Western blot of phospho-Akt and phospho-ERK after MPP+; format: cell-based; conditions: data not shown
[7] = test system: nNOS protein expression; assay: Western blot of nNOS protein in CGNs after MPP+; format: cell-based, rat; conditions: 20 μM, 35 μM MPP+
Procedure: as §2

[8] = test system: th gene; assay: MPTP zebrafish, th gene expression by real-time PCR; format: in vivo; conditions: 200 μM MPTP, 48 hours
Procedure: Wild-type zebrafish (AB strain) and Tg (fli-1:EGFP) transgenic zebrafish were maintained as described in the Zebrafish Handbook (Westerfield, 1993). Zebrafish embryos were generated by natural pair-wise mating (3-12 months old) and raised at 28.5° C. in embryo medium (13.7 mM NaCl, 540 μM KCl, pH 7.4, 25 μM Na2HPO4, 44 μM KH2PO4, 300 μM CaCl2, 100 μM MgSO4, 420 μM NaHCO3, pH 7.4). […] An equal concentration of DMSO in embryo medium was used as vehicle control in each experiment.
Healthy zebrafish embryos were picked out and […] manually at 1 day post fertilization (dpf) and distributed into a 12-well plate with 20 fish embryos or a 6-well microplate with 30 fish embryos in each well. […] Thus subsequent studies were done with 200 μM MPTP for whole-mount immunostaining and gene expression experiments.
Total RNA was extracted from 30 zebrafish larvae of each treatment group using the RNeasy Mini Kit (Qiagen, USA) according to the manufacturer's instructions. […] The expression of the mRNA was normalized to the amount of bactin1 using the relative quantification method described by the manufacturer. […]

[9] = target: T3, recombinant human MAO-B (Homo sapiens, UniProt P27338); assay: MAO-Glo MAO-B inhibition assay; format: biochemical
T3 construct: purchased Sigma-Aldrich
T3 sequence (P27338 whole entry): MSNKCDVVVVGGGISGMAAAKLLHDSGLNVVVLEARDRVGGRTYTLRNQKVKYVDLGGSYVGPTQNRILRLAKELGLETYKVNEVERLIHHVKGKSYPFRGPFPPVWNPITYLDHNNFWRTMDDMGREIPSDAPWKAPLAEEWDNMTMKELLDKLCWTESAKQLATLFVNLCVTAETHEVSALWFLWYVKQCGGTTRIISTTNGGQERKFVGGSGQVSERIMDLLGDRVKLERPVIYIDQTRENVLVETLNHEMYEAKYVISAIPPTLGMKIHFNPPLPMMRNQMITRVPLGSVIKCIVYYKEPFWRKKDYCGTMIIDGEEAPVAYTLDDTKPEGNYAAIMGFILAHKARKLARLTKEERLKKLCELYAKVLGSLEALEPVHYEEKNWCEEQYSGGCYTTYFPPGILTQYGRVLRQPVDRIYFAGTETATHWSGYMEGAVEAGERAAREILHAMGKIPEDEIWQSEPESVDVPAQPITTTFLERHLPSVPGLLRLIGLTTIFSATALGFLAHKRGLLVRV
Procedure: The MAO-B inhibition activity of SU4312 was determined by MAO-Glo™ Assay kit (Promega Inc., USA). The recombinant human MAO-B enzymes and selegiline used in this study were purchased from Sigma-Aldrich. Concentrations of SU4312 tested were 0.01, 0.03, 0.1, 0.3, 1.0 and 10 μM. Selegiline, a known MAO-B inhibitor, was used as positive control at 0.001, 0.01, 0.1, 1, 10 μM. Briefly, SU4312 and selegiline were incubated in 96-well opaque white plates with MAO substrate and rhMAO-B (0.25 mg protein/mL final concentration). Reactions were started by addition of rhMAO-B. Samples were incubated for 1 hour at room temperature. Reactions were terminated by addition of luciferin detection reagent, and samples were incubated an additional 20 minutes to allow development of luciferase- and esterase-dependent luminescence. Relative luminescence was determined with a plate luminometer and was corrected for background using no-MAO-B controls. Results are presented as percent of vehicle (total MAO-B activity).

Structure (SMILES)	inhibition of recombinant human iNOS [1]	IC50 [2]	IC50 ([2]; listed as PTK787)	IC50 [3]	inhibition of recombinant human eNOS [4]	MPP+-elevated expression of iNOS protein [5]	activities of phospho-Akt and phospho-ERK [6]	MPP+-increased expression of nNOS protein [7]	th gene expression down-regulated by MPTP [8]	MAO-B activity in vitro ([9]; figure legends)	IC50 ([9]; rhMAO-B, 1 hour at room temperature)
Clc1ccc(Nc2nnc(Cc3ccncc3)c3ccccc23)cc1 [PTK787/ZK222584]	did not inhibit any of the isoforms even at 1 mM	[…]	[…]	[…]	did not inhibit any of the isoforms even at 1 mM	–	–	–	–	–	–
Cc1cc(C)c(/C=C2\C(=O)Nc3ccccc32)[nH]1 [SU5416, (3Z)-3-[(3,5-dimethyl-1H-pyrrol-2-yl)methylidene]-1,3-dihydro-2H-indol-2-one]	–	–	–	–	–	could not affect the elevated expression of iNOS by MPP^+	could neither inhibit the activation of pro-apoptotic ERK pathway, nor reverse the decrease of pro-survival Akt pathway	reversed the increased expression of nNOS by MPP^+	–	–	–
CN(C)c1ccc(C=C2C(=O)Nc3ccccc32)cc1 [SU4312, 3-[4-(dimethylamino)benzylidenyl]indolin-2-one]	–	–	–	–	no activity against eNOS	–	–	–	significantly alleviated the loss of DA neurons and decrease of th gene expression in a concentration-dependent manner	inhibited monoamine oxidase-B (MAO-B) activity in a concentration dependent manner	~200 nM
